Consider two molecules from paper PMC12491518, “Fabrication of cytotoxic mirror image nanopores” (Nature Communications, 2025).

Where a SMILES comes first, the peptide text is derived from it. [ ]: non-standard residue; d: D form.

A short description of assay [1]: GUV-based molecular transport assay. It is filed as biochemical. To be noted: 100 mM KCl 10 mM HEPES pH 7.4, mean ± S.D., N = 4 batches. As for the experimental part: The giant unilamellar vesicles (GUVs) were constructed using gel-assisted swelling methodology and labeled with 0.05 mol% ATTO 550 DOPE[27],[44],[61]. Thin lipid films were spread on polyvinyl alcohol (PVA) coated glass slides using 30 µL of a 1 mg/mL solution of DOPC (Cis and Ent lipids prepared separately). […] The successful formation of vesicles was verified in real time by phase-contrast microscopy. To study the transport across DpPorA and DpPorA DE pores, the peptides were added to GUVs (at a concentration of 10–15 µM in 0.1% DDM) along with the fluorescent hydrophilic molecules (namely Alexa Fluor 350 Hydrazide: M.W-349 Da, Alexa Fluor 555 Hydrazide: M.W-1150 Da, ATTO 488 Dextran: M.W-3000 Da)[62]. The uptake of fluorescent molecules was monitored over 40 min, with time-lapse imaging at every minute for the first 10 min and then at every 5 min for the following 30 min, tracking either single vesicles or multiple vesicles within the same field of view. Later on, individual vesicles were further scanned and imaged to obtain datasets for statistical analysis. Control experiments were conducted under identical conditions using vesicles prepared with the same detergent concentration but without peptide incorporation. At each time point, the vesicle images were blank-subtracted, and the intensity inside the vesicle ( Iin ) was normalized against the intensity outside ( Iout )[27]. Complete permeabilization of the vesicles was marked by Iin/Iout ≥ 0.98 for peptide-reconstituted vesicles, while Iin/Iout ≥ 0.95 was considered as the cut-off for permeabilization in the control vesicles.

Assay [2] in a line: Single-channel electrical recordings in planar lipid bilayers. Type of assay: biochemical. Conditions: for mean unitary conductance (G): 10 mM HEPES, pH 7.4, DpPorA at +50 mV, n = 83 insertions, DpPorA DE n = 61 insertions; for experimental conductance Gexp: Supplementary Table 1. The method, then: High-resolution electrical recordings for the single-channel characterization were conducted in planar lipid bilayers made up of 1,2-diphytanoyl-sn-glycero-3-phosphocholine (DPhPC, Avanti Polar Lipids)[23],[27],[51]. The lipid bilayer is formed across a polytetrafluoroethylene (Teflon) aperture of ~100 µm in diameter. Teflon is placed between the two sides of the Delrin bilayer chamber, partitioning it into cis and trans compartments (600 µL each). For constructing a solvent-free lipid bilayer, the aperture is made lipophilic by pre-painting both sides with hexadecane in n-pentane (1 μL, 5 mg mL^−1)[51]. After ~10 min, the chambers were filled with buffered electrolytes (1 M KCl, 10 mM HEPES, pH 7.4), and DPhPC in n-pentane (1 μL, 5 mg mL^−1) was added. After ~15 min incubation, the lipid bilayer is formed by raising and lowering the electrolyte solution, bringing the two lipid monolayers together at the aperture. The cis compartment was connected to the ground electrode, while the trans compartment was connected to the working live electrode. Subsequently, DpPorA or DpPorA DE peptides solubilized in 0.1% DDM (1 µL, 100 µg mL^−1) were consistently introduced into the cis compartment of the bilayer. The peptide pore insertion was facilitated by mixing the bilayer chamber and applying a high voltage of +200 mV. The single-channel electrical properties of the peptide pores and analyte-induced pore blockages were examined in 1 M KCl, 10 mM HEPES, pH 7.4. Ion selectivity was assessed under asymmetric salt conditions with a KCl concentration gradient across the planar lipid bilayer (0.15 M cis/1 M trans) (SI text)[27]. The ion current was acquired and amplified using an Axopatch 200B amplifier, digitized with Digidata 1550B digitizer, and recorded using the pClamp 11 acquisition software (Molecular Devices, CA). The current signals were filtered with a 2 kHz low-pass filter frequency and 10 kHz sampling frequency, or with 10 kHz low-pass filter frequency and 50 kHz sampling frequency, in line with the requirement.

Where [3] appears, read: DOPC (Cis-DOPC) GUVs, peptide 10 to 15 µM in 0.1% DDM.

With `CC[C@@H](C)[C@@H](NC(=O)[C@H](N)CCSC)C(=O)N[C@H](CC(=O)O)C(=O)N[C@H](CCC(N)=O)C(=O)N[C@@H](C(=O)N[C@@H](C(=O)N[C@H](CCC(=O)O)C(=O)N[C@@H](C(=O)N[C@H](Cc1ccccc1)C(=O)NCC(=O)N[C@H](CCC(N)=O)C(=O)N[C@H](CC(C)C)C(=O)NCC(=O)N[C@@H](C(=O)N[C@H](Cc1ccccc1)C(=O)N[C@H](CC(C)C)C(=O)NCC(=O)NCC(=O)N[C@H](Cc1ccccc1)C(=O)NCC(=O)N[C@H](CC(N)=O)C(=O)N[C@@H](C(=O)N[C@H](Cc1ccccc1)C(=O)N[C@H](CCCCN)C(=O)NCC(=O)N[C@H](CC(C)C)C(=O)N[C@H](CCCCN)C(=O)N[C@H](C)C(=O)N[C@@H](C(=O)N[C@@H](C(=O)N[C@H](C)C(=O)N[C@@H](C(=O)N[C@@H](C(=O)N[C@@H](C(=O)N[C@H](CCCCN)C(=O)N[C@H](Cc1c[nH]c2ccccc12)C(=O)N[C@@H](C(=O)N[C@H](C)C(=O)N[C@H](C)C(=O)N[C@H](CCCCN)C(=O)O)[C@H](C)O)C(C)C)[C@H](C)CC)[C@H](C)O)[C@H](C)CC)C(C)C)[C@H](C)CC)[C@H](C)O)[C@H](C)CC)[C@H](C)O)[C@H](C)CC` [DpPorA DE] (H-[dM][dI][dD][dQ][dI][dT][dE][dI][dF]G[dQ][dL]G[dT][dF][dL]GG[dF]G[dN][dI][dF][dK]G[dL][dK][dA][dV][dI][dA][dT][dI][dV][dK][dW][dT][dA][dA][dK]-OH; N-terminus and C-terminus assumed), in assay [1] (setting [3]), the “percentage of permeabilization, ATTO 488 Dextran” value (from here on “percentage … ATTO 488 Dextran”) is 53.8 ± 8%; the “percentage of permeabilization, Alexa Fluor 350” value (“percentage … Alexa Fluor 350” below) turned out to be 89.2 ± 3.7%; the “percentage of permeabilization, Alexa Fluor 555” value (from here on “percentage … Alexa Fluor 555”) worked out at 71.3 ± 3.5%. Further, the “mean unitary conductance (G)” value in assay [2] (1 M KCl) is recorded as 3.80 ± 0.2 nS. For the same molecule, the “experimental conductance Gexp” value in assay [2] came to 3.8 ± 0.2 nS.

Consider `CC[C@@H](C)[C@@H](NC(=O)[C@H](N)CCSC)C(=O)N[C@H](CC(=O)O)C(=O)N[C@H](CCC(N)=O)C(=O)N[C@@H](C(=O)N[C@@H](C(=O)N[C@H](CCC(=O)O)C(=O)N[C@@H](C(=O)N[C@H](Cc1ccccc1)C(=O)NCC(=O)N[C@H](CCC(N)=O)C(=O)N[C@H](CC(C)C)C(=O)NCC(=O)N[C@@H](C(=O)N[C@H](Cc1ccccc1)C(=O)N[C@H](CC(C)C)C(=O)NCC(=O)NCC(=O)N[C@H](Cc1ccccc1)C(=O)NCC(=O)N[C@H](CC(N)=O)C(=O)N[C@@H](C(=O)N[C@H](Cc1ccccc1)C(=O)N[C@H](CCCCN)C(=O)NCC(=O)N[C@H](CC(C)C)C(=O)N[C@H](CCCCN)C(=O)N[C@H](CC(=O)O)C(=O)N[C@@H](C(=O)N[C@@H](C(=O)N[C@H](CCC(=O)O)C(=O)N[C@@H](C(=O)N[C@@H](C(=O)N[C@@H](C(=O)N[C@H](CCCCN)C(=O)N[C@H](Cc1c[nH]c2ccccc12)C(=O)N[C@@H](C(=O)N[C@H](C)C(=O)N[C@H](C)C(=O)N[C@H](CCCCN)C(=O)O)[C@H](C)O)C(C)C)[C@H](C)CC)[C@H](C)O)[C@H](C)CC)C(C)C)[C@H](C)CC)[C@H](C)O)[C@H](C)CC)[C@H](C)O)[C@H](C)CC` [DpPorA] (H-[dM][dI][dD][dQ][dI][dT][dE][dI][dF]G[dQ][dL]G[dT][dF][dL]GG[dF]G[dN][dI][dF][dK]G[dL][dK][dD][dV][dI][dE][dT][dI][dV][dK][dW][dT][dA][dA][dK]-OH; N-terminus and C-terminus assumed), for which, in assay [1] (setting [3]), the “percentage … ATTO 488 Dextran” value was 73.0 ± 14.1%; the “percentage … Alexa Fluor 350” value is on record as 88.9±7.8%; the “percentage … Alexa Fluor 555” value stood at 67.9± 10.4%. Also, in assay [1] (Ent-DOPC GUVs, 0.1% DDM), the “percentage … ATTO 488 Dextran” value came to 72.70±14.61%; the “percentage … Alexa Fluor 350” value worked out at 95.13±3.54%; the “percentage … Alexa Fluor 555” value is 70.38±4.93%. Besides, in assay [2] (1 M KCl), the “mean unitary conductance (G)” value was 2.80 ± 0.2 nS. Moreover, the “unitary conductance (G) of proteinase K treated peptides” value in assay [2] (1 M KCl, after proteinase K treatment, n = 25) is 2.8 ± 0.2 nS. In addition, the “pores with slightly higher current at negative than positive voltages” value in assay [2] (1 M KCl, current rectification of n = 30 single channels) amounted to 90%. In addition, the “experimental conductance Gexp” value in assay [2] is 2.8 ± 0.2 nS.
